Results: patent US9150583B2 (Boehringer Ingelheim International GmbH, priority 2011, dated 2015)
pIC50: −log10 of the molar value.

Legend:
[1] = Assay for metabolic degradation; format: in vitro ADME; details: pH 7.6; pooled human liver microsomes, 37° C., microsomal protein 1 mg/ml, test compound 1 μM, NADPH 1 mM; read-out: half-life (t½) values for human liver microsomal metabolic degradation
Method: Assay for Metabolic Degradation
The metabolic degradation of the test compound is assayed at 37° C. with pooled human liver microsomes. The final incubation volume of 100 μl per time point contains TRIS buffer pH 7.6 at room temperature (0.1 M), magnesium chloride (5 mM), microsomal protein (1 mg/ml) and the test compound at a final concentration of 1 μM.
Following a short preincubation period at 37° C., the reactions were initiated by addition of beta-nicotinamide adenine dinucleotide phosphate, reduced form (NADPH, 1 mM) and terminated by transferring an aliquot into solvent after different time points. Additionally, the NADPH-independent degradation was monitored in incubations without NADPH, terminated at the last time point. The quenched incubations are pelleted by centrifugation (10000 g, 5 min). An aliquot of the supernatant is assayed by LC-MS/MS for the amount of parent compound. The half-life (t ½) is determined by the slope of the semilogarithmic plot of the concentration-time profile.

[2] = target: Recombinant human CETP (Homo sapiens (Human), UniProt P11597); assay: CETP in vitro assay (fluorometric, Roar Biomedical); format: biochemical; details: 3 hours at 37° C., compound concentrations between 1 nM and 30 μM, read-out: IC50 values for inhibition of CETP
Chain of Recombinant human CETP (P11597 18-493): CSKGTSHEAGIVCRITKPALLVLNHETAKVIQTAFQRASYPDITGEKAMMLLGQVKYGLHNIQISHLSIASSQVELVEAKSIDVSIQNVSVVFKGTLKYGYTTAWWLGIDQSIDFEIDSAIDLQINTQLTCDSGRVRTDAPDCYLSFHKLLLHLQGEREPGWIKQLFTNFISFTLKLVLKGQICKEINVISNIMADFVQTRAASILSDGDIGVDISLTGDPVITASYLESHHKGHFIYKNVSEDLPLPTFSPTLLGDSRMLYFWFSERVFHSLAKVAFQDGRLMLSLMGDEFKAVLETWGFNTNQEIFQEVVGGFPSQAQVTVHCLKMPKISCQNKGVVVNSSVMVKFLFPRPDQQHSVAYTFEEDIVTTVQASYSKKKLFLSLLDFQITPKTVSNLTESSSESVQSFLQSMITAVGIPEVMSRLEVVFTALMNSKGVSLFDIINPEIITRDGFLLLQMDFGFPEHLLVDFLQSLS
Method: CETP inhibitory activity of compounds of the present invention can be determined in a fluorometric assay purchased from Roar Biomedical, Inc. (New York, N.Y., USA). […] Recombinant human CETP was partially purified from medium conditioned by CETP expressing CHO cells. In a 384 well format 2.5 μl of compound solution in DMSO was combined with 2 μl of donor solution, 2 μl of acceptor solution and 0.8 μl of recombinant human CETP solution in a total volume of 100 μl with assay buffer and incubated for 3 hours at 37° C. The fluorescence intensity was measured at excitation wavelength of 485 nm and emission wavelength of 535 nm. IC50 values are calculated from dose effect curves from compound concentrations between 1 nM and 30 μM.

SMILES	half-life at 1 μM [1] [h]	pIC50 [2]
CC(C)c1nc2c(c3c1[C@@H](c1ccc(C(F)(F)F)cc1)OC31CCOCC1)[C@@H](O)CC1(CC1)[C@H]2O [Example 5, (3R,6R,9S)-4-isopropyl-7,7-(ethan-1,2-diyl)-3-(4-(trifluoromethyl)phenyl)-2′,3′,5′,6,6′,7,8,9-octahydro-3H-spiro[furo[3,4-c]quinoline-1,4′-pyran]-6,9-diol]	0.95	8.05
COc1cc([C@H]2OC3(CCOCC3)c3c2c(C(C)C)nc2c3[C@@H](O)CC3(CC3)C2)ccc1C(F)(F)F [Example 3, (3R,9S)-4-isopropyl-7,7-(ethan-1,2-diyl)-3-(3-methoxy-4-(trifluoromethyl)phenyl)-2′,3,5′,6,6,7,8,9-octahydro-3H-spiro[furo[3,4-c]quinoline-1,4′-pyran]-9-ol]		7.96
COc1cc([C@H]2OC3(CCOCC3)c3c2c(C(C)C)nc2c3[C@@H](O)CC3(CC3)[C@H]2O)ccc1C(F)(F)F [Example 7, (3R,6R,9S)-4-isopropyl-7,7-(ethan-1,2-diyl)-3-(3-methoxy-4-(trifluoromethyl)phenyl)-2′,3′,5′,6,6′,7,8,9-octahydro-3H-spiro[furo[3,4-c]quinoline-1,4′-pyran]-6,9-diol]		7.96
CC(C)c1nc2c(c3c1[C@@H](c1ccc(C(F)(F)F)c(C#N)c1)OC31CCOCC1)[C@@H](O)CC1(CC1)[C@H]2O [Example 6, 5-((3R,6R,9S)-6,9-dihydroxy-4-isopropyl-7,7-(ethan-1,2-diyl)-2′,3′,5′,6,6′,7,8,9-octahydro-3H-spiro[furo[3,4-c]quinoline-1,4′-pyran]-3-yl)-2-(trifluoromethyl)benzonitrile]		7.37
CC(C)c1nc2c(c3c1[C@@H](c1ccc(C(F)(F)F)nc1)OC31CCOCC1)[C@@H](O)CC1(CC1)[C@H]2O [Example 8, (3R,6R,9S)-4-isopropyl-7,7-(ethan-1,2-diyl)-3-(6-(trifluoromethyl)pyridin-3-yl)-2′,3′,5′,6,6′,7,8,9-octahydro-3H-spiro[furo[3,4-c]quinoline-1,4′-pyran]-6,9-diol]	> 2.17	
CC(C)c1nc2c(c3c1[C@@H](c1ccc(C(F)(F)F)c(C#N)c1)OC31CCOCC1)[C@@H](O)CC1(CC1)C2 [Example 2]	> 2.17	7.74
CC(C)c1nc2c(c3c1[C@@H](c1ccc(C(F)(F)F)cc1)OC31CCOCC1)[C@@H](O)CC1(CC1)C2 [Example 1, (3R,9S)-4-isopropyl-7,7-(ethan-1,2-diyl)-3-(4-(trifluoromethyl)phenyl)-2′,3′,5′,6,6′,7,8,9-octahydro-3H-spiro[furo[3,4-c]quinoline-1,4′-pyran]-9-ol]	> 2.17	7.82
CC(C)c1nc2c(c3c1[C@@H](c1ccc(C(F)(F)F)nc1)OC31CCOCC1)[C@@H](O)CC1(CC1)C2 [Example 4]		7.05
